Measurements reported in patent US20230250066A1, “HERBICIDAL CINNOLINE DERIVATIVES” (SYNGENTA CROP PROTECTION AG, priority 2020, published 2023).

Tests used:
Type in all cases: in vivo
[1] = tested on: Amaranthus retoflexus (AMARE); assay: Pre-emergence herbicidal test; details: 1000 g/ha, evaluated after 13 days
[2] = tested on: Setaria faberi (SETFA); assay: Pre-emergence herbicidal test; details: 1000 g/ha, evaluated after 13 days
[3] = tested on: Echinochloa crus-galli (ECHCG); assay: Pre-emergence herbicidal test; details: 1000 g/ha, evaluated after 13 days
[4] = tested on: Ipomoea hederacea (IPOHE); assay: Pre-emergence herbicidal test; details: 1000 g/ha, evaluated after 13 days
[5] = tested on: Abutilon theophrasti (ABUTH); assay: Pre-emergence herbicidal test; details: 1000 g/ha, evaluated after 13 days
[6] = tested on: Zea mays (ZEAMX); assay: Pre-emergence herbicidal test; details: 1000 g/ha, evaluated after 13 days
[7] = tested on: Abutilon theophrasti (ABUTH); assay: Post-emergence herbicidal test; details: 1000 g/ha unless otherwise stated, evaluated after 13 days
Procedure, shortened: (§1)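 Spray-applied at 1000 g/ha unless stated, in the glasshouse. Damage rated 13 days later on a 0–5 scale.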

[8] = tested on: Amaranthus retoflexus (AMARE); assay: Post-emergence herbicidal test; details: 1000 g/ha unless otherwise stated, evaluated after 13 days
Procedure, shortened: as §1

[9] = tested on: Echinochloa crus-galli (ECHCG); assay: Post-emergence herbicidal test; details: 1000 g/ha unless otherwise stated, evaluated after 13 days
Procedure, shortened: as §1

[10] = tested on: Ipomoea hederacea (IPOHE); assay: Post-emergence herbicidal test; details: 1000 g/ha unless otherwise stated, evaluated after 13 days
Procedure, shortened: as §1

[11] = tested on: Setaria faberi (SETFA); assay: Post-emergence herbicidal test; details: 1000 g/ha unless otherwise stated, evaluated after 13 days
Procedure, shortened: as §1

[12] = tested on: Zea mays (ZEAMX); assay: Post-emergence herbicidal test; details: 1000 g/ha unless otherwise stated, evaluated after 13 days
Procedure, shortened: as §1

Compound	percentage damage caused to the plant, five-point scale, AMARE [1]	percentage damage caused to the plant, five-point scale, SETFA [2]	percentage damage caused to the plant, five-point scale, ECHCG [3]	percentage damage caused to the plant, five-point scale, IPOHE [4]	percentage damage caused to the plant, five-point scale, ABUTH [5]	percentage damage caused to the plant, five-point scale, ZEAMX [6]	percentage damage caused to the plant, ABUTH (five-point scale) [7]	percentage damage caused to the plant, AMARE (five-point scale) [8]	percentage damage caused to the plant, ECHCG (five-point scale) [9]	percentage damage caused to the plant, IPOHE (five-point scale) [10]	percentage damage caused to the plant, SETFA (five-point scale) [11]	percentage damage caused to the plant, ZEAMX (five-point scale) [12]
C=CCOC(=O)c1nn(-c2ccc(OC(F)(F)F)cc2)c2cccc(S(C)(=O)=O)c2c1=O [Compound P80, allyl 5-methylsulfonyl-4-oxo-1-[4-(trifluoromethoxy)phenyl]cinnoline-3-carboxylate]	0 (0=0%)	5 (5=81-100%)	4 (4=61-80%)	0 (0=0%)	0 (0=0%)	1 (1=10-20%)	1 (1=10-20%)	0 (0=0%)	3 (3=41-60%)	1 (1=10-20%)	4 (4=61-80%)	1 (1=10-20%)
COC(=O)COC(=O)c1nn(-c2ccc(OC(F)(F)F)cc2)c2cccc(S(C)(=O)=O)c2c1=O [Compound P81, (2-methoxy-2-oxo-ethyl) 5-methylsulfonyl-4-oxo-1-[4-(trifluoromethoxy)phenyl]cinnoline-3-carboxylate]	0 (0=0%)	5 (5=81-100%)	4 (4=61-80%)	0 (0=0%)	0 (0=0%)	0 (0=0%)	1 (1=10-20%)	1 (1=10-20%)	3 (3=41-60%)	0 (0=0%)	4 (4=61-80%)	1 (1=10-20%)
CCCCCCCCCOC(=O)c1nn(-c2ccc(OC(F)(F)F)cc2)c2cccc(S(C)(=O)=O)c2c1=O [Compound P82, nonyl 5-methylsulfonyl-4-oxo-1-[4-(trifluoromethoxy)phenyl]cinnoline-3-carboxylate]	0 (0=0%)	3 (3=41-60%)	1 (1=10-20%)	0 (0=0%)	0 (0=0%)	0 (0=0%)	1 (1=10-20%)	0 (0=0%)	1 (1=10-20%)	1 (1=10-20%)	0 (0=0%)	1 (1=10-20%)
CS(=O)(=O)c1cccc2c1c(=O)c(C(=O)OCCCCCCCCCc1ccccc1)nn2-c1ccc(OC(F)(F)F)cc1 [Compound P83, 9-phenylnonyl 5-methylsulfonyl-4-oxo-1-[4-(trifluoromethoxy)phenyl]cinnoline-3-carboxylate]	0 (0=0%)	0 (0=0%)	0 (0=0%)	0 (0=0%)	0 (0=0%)	0 (0=0%)	0 (0=0%)	0 (0=0%)	0 (0=0%)	0 (0=0%)	0 (0=0%)	0 (0=0%)
CS(=O)(=O)c1cccc2c1c(=O)c(C(=O)OCCCc1ccccc1)nn2-c1ccc(OC(F)(F)F)cc1 [Compound P84, 3-phenylpropyl 5-methylsulfonyl-4-oxo-1-[4-(trifluoromethoxy)phenyl]cinnoline-3-carboxylate]	0 (0=0%)	4 (4=61-80%)	3 (3=41-60%)	0 (0=0%)	0 (0=0%)	0 (0=0%)	1 (1=10-20%)	0 (0=0%)	2 (2=21-40%)	1 (1=10-20%)	4 (4=61-80%)	0 (0=0%)
COC(C)(C)CCOC(=O)c1nn(-c2ccc(OC(F)(F)F)cc2)c2cccc(S(C)(=O)=O)c2c1=O [Compound P85, (3-methoxy-3-methyl-butyl) 5-methysulfonyl-4-oxo-1-[4-(trifluoromethoxy)phenyl]cinnoline-3-carboxylate]	0 (0=0%)	4 (4=61-80%)	4 (4=61-80%)	0 (0=0%)	0 (0=0%)	0 (0=0%)	1 (1=10-20%)	1 (1=10-20%)	3 (3=41-60%)	0 (0=0%)	4 (4=61-80%)	1 (1=10-20%)
CC(C)(C)CCOC(=O)c1nn(-c2ccc(OC(F)(F)F)cc2)c2cccc(S(C)(=O)=O)c2c1=O [Compound P86, 3,3-dimethylbutyl 5-methylsulfonyl-4-oxo-1-[4-(trifluoromethoxy)phenyl]cinnoline-3-carboxylate]	0 (0=0%)	4 (4=61-80%)	5 (5=81-100%)	0 (0=0%)	1 (1=10-20%)	1 (1=10-20%)	0 (0=0%)	0 (0=0%)	4 (4=61-80%)	0 (0=0%)	4 (4=61-80%)	0 (0=0%)
CS(=O)(=O)c1cccc2c1c(=O)c(C(=O)OCCC1CCCCC1)nn2-c1ccc(OC(F)(F)F)cc1 [Compound P87, 2-cyclohexylethyl 5-methylsulfonyl-4-oxo-1-[4-(trifluoromethoxy)phenyl]cinnoline-3-carboxylate]	0 (0=0%)	3 (3=41-60%)	1 (1=10-20%)	1 (1=10-20%)	1 (1=10-20%)	1 (1=10-20%)	1 (1=10-20%)	1 (1=10-20%)	1 (1=10-20%)	0 (0=0%)	1 (1=10-20%)	0 (0=0%)
CC(C)CCOC(=O)c1nn(-c2ccc(OC(F)(F)F)cc2)c2cccc(S(C)(=O)=O)c2c1=O [Compound P88, isopentyl 5-methylsulfonyl-4-oxo-1-[4-(trifluoromethoxy)phenyl]cinnoline-3-carboxylate]	0 (0=0%)	5 (5=81-100%)	4 (4=61-80%)	0 (0=0%)	0 (0=0%)	0 (0=0%)	1 (1=10-20%)	0 (0=0%)	3 (3=41-60%)	0 (0=0%)	4 (4=61-80%)	0 (0=0%)
